One data set has as its target T1, hGR (Homo sapiens, UniProt P04150).
T1 construct: expressed in transfected cells
T1 sequence (P04150 1-777): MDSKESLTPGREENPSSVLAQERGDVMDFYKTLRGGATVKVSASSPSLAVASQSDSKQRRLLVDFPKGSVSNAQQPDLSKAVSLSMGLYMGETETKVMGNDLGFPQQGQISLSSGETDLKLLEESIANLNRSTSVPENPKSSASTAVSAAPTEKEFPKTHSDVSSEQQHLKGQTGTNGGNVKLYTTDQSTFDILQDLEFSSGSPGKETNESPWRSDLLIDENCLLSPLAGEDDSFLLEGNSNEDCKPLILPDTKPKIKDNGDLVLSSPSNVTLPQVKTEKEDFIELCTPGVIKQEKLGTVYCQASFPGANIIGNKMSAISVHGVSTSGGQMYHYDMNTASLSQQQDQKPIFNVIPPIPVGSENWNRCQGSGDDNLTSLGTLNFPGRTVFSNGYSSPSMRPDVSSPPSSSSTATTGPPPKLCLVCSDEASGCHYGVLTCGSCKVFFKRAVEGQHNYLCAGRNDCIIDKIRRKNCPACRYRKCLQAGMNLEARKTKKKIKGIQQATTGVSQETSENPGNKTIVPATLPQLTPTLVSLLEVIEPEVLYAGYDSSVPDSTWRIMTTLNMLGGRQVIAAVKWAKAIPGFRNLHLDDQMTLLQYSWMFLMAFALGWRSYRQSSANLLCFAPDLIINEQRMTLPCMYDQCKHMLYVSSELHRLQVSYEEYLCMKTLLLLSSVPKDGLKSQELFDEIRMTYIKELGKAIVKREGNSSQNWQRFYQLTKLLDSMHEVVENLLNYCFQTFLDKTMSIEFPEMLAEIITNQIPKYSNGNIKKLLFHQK
Briefly: Co-transfection assay, other nuclear receptors: hGR. Format: cell-based. The source says:
An exemplary co-transfection assay is the luciferase reporter assay (Evans, Science 240: 889-895 (1988), Berger et al., J Steroid Biochem Mol Biol 41: 733-738 (1992)) can be used to establish the ability of a compound of formulae I, II or III to activate (agonist activity) or repress (antagonist activity) the ability of the human androgen receptor (hAR) to induce gene expression. A human cell line containing endogenously expressed hAR (e.g., MDA-MB-453 cells, derived from a human mammary carcinoma, American Tissue Type Culture Collection [ATCC] HTB 131) can be transfected with an androgen responsive luciferase reporter plasmid to measure the level of cross-reactivity of the compound on other nuclear receptors (such as the glucocorticoid receptor (GR), estrogen receptor (ER), mineralocorticoid receptor (MR), progesterone receptor (PR), retinoid receptor (RAR), retinoid X receptor (RXR), peroxisome proliferator activating receptors alpha (PPARα), gamma (PPARγ) and delta (PPARδ), liver X receptor (LXR), farnesyl X receptor (FXR) and the pregnane X receptor (PXR)). In the assay, luciferase reporter plasmids containing the cDNA for firefly luciferase (LUC) under the control of a conditional promoter containing hormone response elements recognized by the appropriate nuclear receptor are co-transfected into cells with the nuclear receptor expression plasmid. […]

Data set [1] can be described thus: Metabolic stability in liver microsomes. Format: in vitro ADME. Particulars: rat liver microsomes, 37° C., pH 7.4, average of 2 experiments; read-out: half-life for degradation. As for the experimental part: Liver microsomes are subcellular fractions that contain drug-metabolizing enzymes, such as cytochrome P450, flavin monooxygenases and UDP glucuronyl transferases. […] Rat liver microsomes are a commonly used animal model for determination of drug metabolism (e.g., see Shayeganpour et al., Drug Metab Dispos 34 (1): 43-50 (2006)).
The metabolism of Compound 102 was evaluated in rat liver microsomes. The metabolism was initiated by adding 25 μL of cofactor (100 mM of glucose 6-phosphate, 20 mM of NADP, […], and 63 mM of UDPGA) to wells containing 50 μL of 5 mg/mL of rat liver microsomes and 425 μL of 0.59 mM of Compound 102 made in 100 mM phosphate buffer (pH 7.4) at 37° C. At 0, 5, 10 and 20 minutes, a 60 μL aliquot of the sample was withdrawn. The unmetabolized test substance remaining in the sample was determined using HPLC and mass spectrometry and the half-life for degradation of the compound was calculated in minutes using curve fitting.
In general terms: Liver microsomes are a subcellular fraction often used to study metabolism.

Experimental findings from US11358931B2, “Selective androgen receptor modulators (SARMs) and uses thereof” (priority 2007, dated 2022) are described below.

The term IC50 denotes the concentration that inhibits the measured activity by half. A low value points to higher potency. In general, half-life refers to how long it takes for the measured level to halve. `N#Cc1ccc(N2CCC[C@@H]2[C@@H](O)C(F)(F)F)cc1C(F)(F)F` [Compound 102, R,R-4-(2-(1-Hydroxyl-2,2,2-trifluoroethyl)-pyrrolidinyl)-2-trifluoromethyl-benzonitrile] came in with an IC50 against hGR of 1.6 µM. Further, the “antagonism of dexamethasone-induced activation of hGR (efficacy)” value on hGR (dexamethasone-induced activation) was found to be 60%. Further, the half-life at 0.5 mM in data set [1] is 44.5 min.
